Experimental data: patent US9200005B2, “Inhibitor compounds of phosphodiesterase type 10A” (AbbVie Deutschland GmbH & Co. KG, priority 2013, dated 2015)
Counter-ions that a name gives are not always drawn.

Tests used:
[1] = molecular target: PDE10A (UniProt Q9Y233); assay: Measurement of PDE activity (HTRF cAMP kit, recombinant PDE10A); format: biochemical, human, rat and mouse; details: substrate 20 nM, 60 minutes at 29° C.
Method: a) Measurement of PDE Activity
The recombinant PDE proteins are used in in vitro enzymatic reaction for measurement of PDE activity. These recombinant proteins, including PDE10A (human, rat and mouse PDE10) and isoforms of PDEs 1, 3, 4, and 5, were purchased from commercial vendor BPS Bioscience. The enzymatic activity of PDEs was determined by cAMP measurement kit from CisBio (IBA) using HTRF technology.
The PDE enzymatic reaction was carried out in assay buffer (20 mM Tris-HCl pH 7.5, 10 mM MgCl2, 0.1% bovine serum albumin) containing enzyme and substrate. […] The substrate cyclic nucleotide (cAMP or cGMP) concentration used in the assay was 20 nM for PDE10, and 100 nM for other PDEs. The inhibitory effect of compound was determined by incubating various concentration of inhibitor in the enzymatic assay. […] Next, the compound at varying concentration was mixed with PDE enzyme. The reaction was initiated by addition of cyclic nucleotide substrate, and incubated for 60 minutes at 29° C. The reaction was stopped by addition of lysis buffer from the assay kit. The cAMP-d2 and anti-cAMP cryptate in the lysis buffer detected the level of cAMP left from the PDE hydrolysis reaction. […] Thus, IC50 value of inhibitor can be obtained by plotting inhibitor concentration against PDE activity at that concentration.

[2] = Determination of the microsomal half-life / microsomal clearance, rat liver microsomes; format: in vitro ADME; details: 0.5 μM test substance, 0.25 mg of microsomal protein/mL, NADPH, 37° C.
How it was run: (§1)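 Compound (0.5 μM) was preincubated 5 min at 37 °C with rat or human liver microsomes (0.25 mg protein/mL) in 0.05 M phosphate pH 7.4, and NADPH (1 mg/mL) was then added. Samples taken at 0-30 min and quenched with acetonitrile were analysed by MS/MS. T½ was derived assuming first-order decay, and clearance […] was calculated from T½ and protein content.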

[3] = Determination of the microsomal half-life / microsomal clearance, human liver microsomes; format: in vitro ADME; details: 0.5 μM test substance, 0.25 mg of microsomal protein/mL, NADPH, 37° C.
How it was run: as §1

Row | Compound | IC50 [1] | Rat mCl [2] | Human mCl [3] | IC50 ([1]; (hydrochloride salt)) | Rat mCl ([2]; bis(trifluoroacetate))
1 | Cn1nc(OCc2nc3ccccc3n2C)c2scc(-c3ccncc3)c2c1=O [Example 70, 5-methyl-7-[(1-methyl-1H-benzimidazol-2-yl)methoxy]-3-(pyridin-4-yl)thieno[2,3-d]pyridazin-4(5H)-one] | < 100 nM | + (+: 100-220 μl min^−1 mg^−1) | + (+: 100-220 μl min^−1 mg^−1) | – | –
2 | Cn1nc(OCc2cccc(C#N)c2)c2scc(-c3ccncc3)c2c1=O.O=C(O)C(F)(F)F [Example 59, 3-({[5-methyl-4-oxo-3-(pyridin-4-yl)-4,5-dihydrothieno[2,3-d]pyridazin-7-yl]oxy}methyl)benzonitrile trifluoroacetate] | < 100 nM | ++ (++: <100 μl min^−1 mg^−1) | ++ (++: <100 μl min^−1 mg^−1) | – | –
3 | Cn1nc(OCc2nccs2)c2scc(-c3ccncc3)c2c1=O [Example 58, 5-methyl-3-(pyridin-4-yl)-7-(1,3-thiazol-2-ylmethoxy)thieno[2,3-d]pyridazin-4(5H)-one] | < 100 nM | ++ (++: <100 μl min^−1 mg^−1) | ++ (++: <100 μl min^−1 mg^−1) | – | –
4 | Cn1nc(-c2ccncc2)c2scc(-c3cncnc3)c2c1=O [Example 11, 5-methyl-7-(pyridin-4-yl)-3-(pyrimidin-5-yl)thieno[2,3-d]pyridazin-4(5H)-one (hydrochloride salt)] | – | ++ (++: <100 μl min^−1 mg^−1) | ++ (++: <100 μl min^−1 mg^−1) | 100 to 200 nM | –
5 | Cn1nc(OCc2cccc3ccoc23)c2scc(-c3ccncc3)c2c1=O [Example 64, 7-(1-benzofuran-7-ylmethoxy)-5-methyl-3-(pyridin-4-yl)thieno[2,3-d]pyridazin-4(5H)-one] | 100 to 200 nM | ++ (++: <100 μl min^−1 mg^−1) | ++ (++: <100 μl min^−1 mg^−1) | – | –
6 | Cn1nc(NCc2ccccc2)c2scc(-c3ccncc3)c2c1=O.O=C(O)C(F)(F)F.O=C(O)C(F)(F)F [Example 50, 7-(benzylamino)-5-methyl-3-(pyridin-4-yl)thieno[2,3-d]pyridazin-4(5H)-one bis(trifluoroacetate)] | 100 to 200 nM | ++ (++: <100 μl min^−1 mg^−1) | ++ (++: <100 μl min^−1 mg^−1) | – | –
7 | Cn1nc(OCc2ccc(Cl)cc2)c2scc(-c3ccncc3)c2c1=O [Example 62, 7-[(4-chlorobenzyl)oxy]-5-methyl-3-(pyridin-4-yl)thieno[2,3-d]pyridazin-4(5H)-one] | 200 to 500 nM | ++ (++: <100 μl min^−1 mg^−1) | ++ (++: <100 μl min^−1 mg^−1) | – | –
8 | Cn1nc(OCc2ccccc2)c2scc(-c3ccncc3)c2c1=O [Example 54, 7-(benzyloxy)-5-methyl-3-(pyridin-4-yl)thieno[2,3-d]pyridazin-4(5H)-one] | 100 to 200 nM | + (+: 100-220 μl min^−1 mg^−1) | ++ (++: <100 μl min^−1 mg^−1) | – | –
9 | Cn1nc(-c2ccncc2)c2scc(N3CCOCC3)c2c1=O [Example 3, 5-methyl-3-(morpholin-4-yl)-7-(pyridin-4-yl)thieno[2,3-d]pyridazin-4(5H)-one] | 200 to 500 nM | ++ (++: <100 μl min^−1 mg^−1) | ++ (++: <100 μl min^−1 mg^−1) | – | –
10 | Cn1nc(OCc2cccc(C(N)=O)c2)c2scc(-c3ccncc3)c2c1=O.O=C(O)C(F)(F)F [Example 67, 3-({[5-methyl-4-oxo-3-(pyridin-4-yl)-4,5-dihydrothieno[2,3-d]pyridazin-7-yl]oxy}methyl)benzamide trifluoroacetate] | < 100 nM | ++ (++: <100 μl min^−1 mg^−1) | ++ (++: <100 μl min^−1 mg^−1) | – | –
11 | COc1cccc(-c2nn(C)c(=O)c3c(-c4ccncc4)csc23)c1 [Example 123, 7-(3-methoxyphenyl)-5-methyl-3-(pyridin-4-yl)thieno[2,3-d]pyridazin-4(5H)-one] | 100 to 200 nM | ∘ (∘ not avialable or >220 μl min^−1 mg^−1) | + (+: 100-220 μl min^−1 mg^−1) | – | –
12 | Cn1nc(OCc2ccc3c(c2)OCO3)c2scc(-c3ccncc3)c2c1=O [Example 69, 7-(1,3-benzodioxol-5-ylmethoxy)-5-methyl-3-(pyridin-4-yl)thieno[2,3-d]pyridazin-4(5H)-one] | 100 to 200 nM | + (+: 100-220 μl min^−1 mg^−1) | ++ (++: <100 μl min^−1 mg^−1) | – | –
13 | Cn1nc(-c2ccncc2)c2scc(NC3COC3)c2c1=O [Example 2, 5-methyl-3-(oxetan-3-ylamino)-7-(pyridin-4-yl)thieno[2,3-d]pyridazin-4(5H)-one] | 200 to 500 nM | + (+: 100-220 μl min^−1 mg^−1) | ++ (++: <100 μl min^−1 mg^−1) | – | –
14 | Cn1nc(-c2ccncc2)c2scc(-c3cccnc3)c2c1=O.O=C(O)C(F)(F)F [Example 14, 5-methyl-3-(pyridin-3-yl)-7-(pyridin-4-yl)thieno[2,3-d]pyridazin-4(5H)-one bis(trifluoroacetate)] | 100 to 200 nM | – | ++ (++: <100 μl min^−1 mg^−1) | – | ++ (++: <100 μl min^−1 mg^−1)

More lines, now with the values ahead:

Row | IC50 [1] | Rat mCl [2] | Human mCl [3] | IC50 ([1]; (hydrochloride salt)) | Rat mCl ([2]; bis(trifluoroacetate)) | Compound
15 | 100 to 200 nM | ++ (++: <100 μl min^−1 mg^−1) | + (+: 100-220 μl min^−1 mg^−1) | – | – | CCCn1nc(-c2ccncc2)c2scc(-c3ccncc3)c2c1=O [Example 139, 5-propyl-3,7-di(pyridin-4-yl)thieno[2,3-d]pyridazin-4(5H)-one]
16 | < 100 nM | ++ (++: <100 μl min^−1 mg^−1) | ++ (++: <100 μl min^−1 mg^−1) | – | – | O=c1c2c(-c3cncnc3)csc2c(-c2ccncc2)nn1CC1CC1 [Example 146, 5-(cyclopropylmethyl)-7-(pyridin-4-yl)-3-(pyrimidin-5-yl)thieno[2,3-d]pyridazin-4(5H)-one]
17 | < 100 nM | ++ (++: <100 μl min^−1 mg^−1) | + (+: 100-220 μl min^−1 mg^−1) | – | – | COc1cc(OC)cc(Oc2nn(C)c(=O)c3c(-c4ccncc4)csc23)c1 [Example 92, 7-(3,5-dimethoxyphenoxy)-5-methyl-3-(pyridin-4-yl)thieno[2,3-d]pyridazin-4(5H)-one]
18 | 200 to 500 nM | ++ (++: <100 μl min^−1 mg^−1) | ++ (++: <100 μl min^−1 mg^−1) | – | – | Cn1nc(Oc2ccccc2)c2scc(-c3ccncc3)c2c1=O [Example 81, 5-methyl-7-phenoxy-3-(pyridin-4-yl)thieno[2,3-d]pyridazin-4(5H)-one]
19 | 200 to 500 nM | + (+: 100-220 μl min^−1 mg^−1) | ++ (++: <100 μl min^−1 mg^−1) | – | – | COc1ccc(Oc2nn(C)c(=O)c3c(-c4ccncc4)csc23)cc1 [Example 86, 7-(4-methoxyphenoxy)-5-methyl-3-(pyridin-4-yl)thieno[2,3-d]pyridazin-4(5H)-one]
20 | 100 to 200 nM | ++ (++: <100 μl min^−1 mg^−1) | ++ (++: <100 μl min^−1 mg^−1) | – | – | Cn1nc(-c2cccc(C#N)c2)c2scc(-c3ccncc3)c2c1=O [Example 94, 3-[5-methyl-4-oxo-3-(pyridin-4-yl)-4,5-dihydrothieno[2,3-d]pyridazin-7-yl]benzonitrile]
21 | 200 to 500 nM | ++ (++: <100 μl min^−1 mg^−1) | ++ (++: <100 μl min^−1 mg^−1) | – | – | CC(C)Oc1cccc(COc2nn(C)c(=O)c3c(-c4ccncc4)csc23)c1 [Example 73, 5-methyl-7-{[3-(propan-2-yloxy)benzyl]oxy}-3-(pyridin-4-yl)thieno[2,3-d]pyridazin-4(5H)-one]
22 | 200 to 500 nM | + (+: 100-220 μl min^−1 mg^−1) | + (+: 100-220 μl min^−1 mg^−1) | – | – | Cn1nc(-c2ccc3c(c2)OCO3)c2scc(-c3ccncc3)c2c1=O [Example 124, 7-(1,3-benzodioxol-5-yl)-5-methyl-3-(pyridin-4-yl)thieno[2,3-d]pyridazin-4(5H)-one]
23 | < 100 nM | ++ (++: <100 μl min^−1 mg^−1) | ++ (++: <100 μl min^−1 mg^−1) | – | – | O=c1c2c(-c3ccncc3)csc2c(-c2ccncc2)nn1CC(F)(F)F [Example 131, 3,7-di(pyridin-4-yl)-5-(2,2,2-trifluoroethyl)thieno[2,3-d]pyridazin-4(5H)-one]
24 | 100 to 200 nM | ++ (++: <100 μl min^−1 mg^−1) | + (+: 100-220 μl min^−1 mg^−1) | – | – | Cn1nc(Oc2ccccc2C#N)c2scc(-c3ccncc3)c2c1=O.O=C(O)C(F)(F)F [Example 83, 2-{[5-methyl-4-oxo-3-(pyridin-4-yl)-4,5-dihydrothieno[2,3-d]pyridazin-7-yl]oxy}benzonitrile trifluoroacetate]
25 | < 100 nM | ++ (++: <100 μl min^−1 mg^−1) | ++ (++: <100 μl min^−1 mg^−1) | – | – | Cn1nc(OCc2cccc(OC(F)F)c2)c2scc(-c3ccncc3)c2c1=O [Example 76, 7-{[3-(difluoromethoxy)benzyl]oxy}-5-methyl-3-(pyridin-4-yl)thieno[2,3-d]pyridazin-4(5H)-one]
